Consider 25 molecules from PubChem BioAssay (NCI).

Test systems include HL-60(TB) leukemia; IGROV1 ovarian; LOX IMVI melanoma; SNB-78 CNS; KM20L2 colon; XF 498 CNS; UACC-257 melanoma; LXFL 529 NSCLC; HOP-18 NSCLC; DMS 273 small cell lung; EKVX NSCLC; BT-549 breast; NCI/ADR-RES ovarian.
Holding throughout (test): NCI tumour cell line growth inhibition, 48 h

SMILES strings stand for the structures.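 Cells were grown in 96-well plates and exposed to each compound for 48 hours at five concentrations; endpoints were interpolated linearly between bracketing concentrations, or set to the highest concentration if not reached. Abbreviation: GI50, concentration required for 50% inhibition of growth. The concentration for full growth arrest is given as TGI.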

For `CC1(C)CCC[C@@]2(C)C1CC[C@H]1CC(O)C3(C)CCC12C3` (some centres undefined), the TGI in the assay with HL-60(TB) leukemia stood at 51.2 µM; in the assay on IGROV1 ovarian, 50.6 µM; in the assay with LOX IMVI melanoma, 28.9 µM; in the assay on SNB-78 CNS, 37 µM; in the assay on KM20L2 colon, 33 µM; with XF 498 CNS, 31.7 µM. Moreover, the TGI was 32.1 µM in the assay on UACC-257 melanoma and 31.2 µM in the assay with LXFL 529 NSCLC.

`NC(=S)N/N=C(\C(=O)Nc1cccc([N+](=O)[O-])c1)c1nc2ccc([N+](=O)[O-])cc2[nH]c1=O`: the TGI in the assay with HOP-18 NSCLC, in the assay with HL-60(TB) leukemia, in the assay with IGROV1 ovarian, in the assay on DMS 273 small cell lung, with LOX IMVI melanoma and in the assay on EKVX NSCLC was above 100 µM in each case. The TGI in the assay with KM20L2 colon, in the assay with XF 498 CNS, with UACC-257 melanoma and in the assay with LXFL 529 NSCLC was above 100 µM throughout.

On to `CCCn1c(SCC)c2cc3cc4ccccc4cc3cc2c1-c1nc(F)nc(F)n1`, for which the TGI in the assay on HL-60(TB) leukemia, in the assay with IGROV1 ovarian, in the assay on DMS 273 small cell lung, in the assay with LOX IMVI melanoma, with SNB-78 CNS and in the assay with EKVX NSCLC was above 100 µM throughout. Besides, the TGI with KM20L2 colon, in the assay with XF 498 CNS, in the assay with UACC-257 melanoma and in the assay on LXFL 529 NSCLC was above 100 µM each time.

In the case of `O=C(c1ccco1)N(C(=S)N1CCN(c2ccccn2)CC1)C1CCCCC1`, the TGI in the assay with HOP-18 NSCLC, with HL-60(TB) leukemia, in the assay on IGROV1 ovarian, in the assay with DMS 273 small cell lung, in the assay on LOX IMVI melanoma and in the assay on SNB-78 CNS was above 100 µM each time. The TGI in the assay on KM20L2 colon, in the assay with UACC-257 melanoma and with LXFL 529 NSCLC was above 100 µM throughout.

In the case of `CC(C)C1CCC/C=C/C=C/C=C/C=C/C(OC2OC(C)C(O)C(N)C2O)CC2OC(O)(CC(O)CC(O)C(O)CCC(=O)O1)CC(O)C2C(=O)O` (centres undefined), the TGI with HOP-18 NSCLC, with HL-60(TB) leukemia, with IGROV1 ovarian, in the assay with SNB-78 CNS, in the assay with KM20L2 colon and in the assay on LXFL 529 NSCLC was above 52.5 µM throughout.

As for `O=C(c1cccs1)N(C(=S)N1CCN(c2ccccn2)CC1)C1CCCCC1`, the TGI with HOP-18 NSCLC, with HL-60(TB) leukemia, with IGROV1 ovarian, in the assay with DMS 273 small cell lung, in the assay on LOX IMVI melanoma and with SNB-78 CNS was above 100 µM in each case. The TGI in the assay with KM20L2 colon, with UACC-257 melanoma and in the assay on LXFL 529 NSCLC was above 100 µM in each case.

Regarding `CSc1nc(NC(=O)O)c(N(C(C)=O)C(=O)O)c(=O)n1C`, the TGI in the assay on HL-60(TB) leukemia, in the assay on IGROV1 ovarian, in the assay with DMS 273 small cell lung, in the assay on LOX IMVI melanoma, with SNB-78 CNS and with EKVX NSCLC was above 100 µM in each case. The TGI in the assay with KM20L2 colon, with XF 498 CNS, in the assay on UACC-257 melanoma and with LXFL 529 NSCLC was above 100 µM in each case.

As for `O=C(Nc1ccc(F)cc1)C(=O)C(C1OC(=O)c2ccccc21)[N+](=O)[O-]` (centres undefined), the TGI with HL-60(TB) leukemia, with IGROV1 ovarian, in the assay with LOX IMVI melanoma, in the assay with SNB-78 CNS, in the assay with EKVX NSCLC and in the assay with KM20L2 colon was above 100 µM in each case. The TGI in the assay on XF 498 CNS, in the assay on UACC-257 melanoma and with LXFL 529 NSCLC was above 100 µM throughout.

Turning to `COc1cccc2c(Nc3ccc(S(=O)(=O)NC(C)=O)cc3)c3ccc([N+](=O)[O-])cc3nc12`, the TGI with HL-60(TB) leukemia was above 100 µM; in the assay with IGROV1 ovarian it was above 86.7 µM; with BT-549 breast it was above 56 µM; with LOX IMVI melanoma, above 100 µM; in the assay on EKVX NSCLC it was above 100 µM; with UACC-257 melanoma, above 54.9 µM. This molecule displayed a TGI in the assay on NCI/ADR-RES ovarian above 100 µM.

For `O=c1cc(CBr)c2ccc(O)cc2o1`, the TGI in the assay on HL-60(TB) leukemia was above 100 µM; in the assay with IGROV1 ovarian it was above 100 µM; in the assay on BT-549 breast it was 77 µM; with LOX IMVI melanoma, above 100 µM; in the assay on EKVX NSCLC it was 91.1 µM; in the assay on UACC-257 melanoma it was above 100 µM. The TGI with NCI/ADR-RES ovarian is above 100 µM.

`CCN(CC)C(=S)SNCc1ccc(S(N)(=O)=O)cc1`: the TGI was determined as 22.8 µM with HL-60(TB) leukemia; 26.6 µM in the assay with IGROV1 ovarian; 33 µM in the assay on BT-549 breast; 28.8 µM in the assay on LOX IMVI melanoma; 43.5 µM in the assay with EKVX NSCLC; 33.5 µM in the assay with UACC-257 melanoma. This molecule showed a TGI with NCI/ADR-RES ovarian of 41.8 µM.

Take `C=C1CC(C)(COc2ccc3ccc(=O)oc3c2)OC1=O` (centres undefined): the TGI with HL-60(TB) leukemia was found to be 2.57 µM; in the assay with IGROV1 ovarian, 10.8 µM; in the assay on BT-549 breast, 2.65 µM; with LOX IMVI melanoma, 5.65 µM; in the assay on EKVX NSCLC, 26.7 µM; in the assay with UACC-257 melanoma, 2.58 µM. The molecule further came in with a TGI with NCI/ADR-RES ovarian of 11.2 µM.

As to `[O-][n+]1onc(-c2ccccc2)c1CN1CCOCC1`, the TGI in the assay on HL-60(TB) leukemia, in the assay with IGROV1 ovarian, in the assay on BT-549 breast, in the assay on LOX IMVI melanoma, in the assay with EKVX NSCLC and in the assay on UACC-257 melanoma was above 100 µM in each case. In the assay on NCI/ADR-RES ovarian, the TGI is above 100 µM.

As for `Cc1nn(-c2ccccc2)c2[nH]c(=S)cnc12`, the TGI in the assay with HL-60(TB) leukemia, in the assay on IGROV1 ovarian, in the assay with BT-549 breast, with LOX IMVI melanoma, in the assay with EKVX NSCLC and with UACC-257 melanoma was above 100 µM in each case. The same molecule yielded a TGI in the assay on NCI/ADR-RES ovarian above 100 µM.

Regarding `COC(=O)C1=C(\c2ccccc2)c2ccccc2C(=O)N(C2CCCCC2)/C=C\1`, the TGI was above 100 µM in the assay on HL-60(TB) leukemia; above 100 µM with IGROV1 ovarian; 74.6 µM with BT-549 breast; 37.7 µM with LOX IMVI melanoma; above 100 µM with EKVX NSCLC; 41.5 µM with UACC-257 melanoma. For the same molecule, the TGI in the assay on NCI/ADR-RES ovarian is above 100 µM.

With `O=[N+]([O-])c1ccc2[nH]ncc2c1Cl`, the TGI in the assay on HL-60(TB) leukemia was above 100 µM; in the assay with IGROV1 ovarian it was 39.1 µM; with BT-549 breast, 89.7 µM; in the assay with LOX IMVI melanoma it was 38.9 µM; in the assay on EKVX NSCLC, 53.8 µM; in the assay on UACC-257 melanoma it was above 100 µM. For the same molecule, in the assay on NCI/ADR-RES ovarian, the TGI was above 100 µM.

As to `Cc1ccc(S(=O)(=O)NC2C(=O)c3ccccc3C(=O)C2n2cnc3ccccc32)cc1` (centres undefined), the TGI was 40.8 µM in the assay on HL-60(TB) leukemia; 75 µM with IGROV1 ovarian; above 100 µM in the assay with BT-549 breast; above 100 µM in the assay with LOX IMVI melanoma; above 100 µM in the assay with EKVX NSCLC; above 100 µM with UACC-257 melanoma. The molecule also gave a TGI in the assay with NCI/ADR-RES ovarian of 73.6 µM.

Consider `CC1=C(C(=O)NCCc2ccccc2)CC(C(=O)NCCc2ccccc2)=C(C)N1`, for which the TGI with HL-60(TB) leukemia, in the assay with IGROV1 ovarian, with BT-549 breast, in the assay on LOX IMVI melanoma, in the assay on EKVX NSCLC and in the assay on UACC-257 melanoma was above 100 µM in each case. Also, the TGI in the assay with NCI/ADR-RES ovarian is above 100 µM.

Regarding `O=C(O)c1ccc(Nc2nc3ccccc3nc2-c2cccs2)cc1`, the TGI in the assay with HL-60(TB) leukemia, with IGROV1 ovarian, in the assay on BT-549 breast, in the assay with LOX IMVI melanoma, in the assay with EKVX NSCLC and in the assay with UACC-257 melanoma was above 100 µM throughout. Further, in the assay on NCI/ADR-RES ovarian, the TGI was above 100 µM.

As to `O=c1c2cccnc2cc(-c2ccccc2)n1CCO`, the TGI with HL-60(TB) leukemia, in the assay on IGROV1 ovarian, in the assay on BT-549 breast, in the assay on LOX IMVI melanoma, in the assay with EKVX NSCLC and in the assay with UACC-257 melanoma was above 100 µM throughout. The molecule further registered a TGI with NCI/ADR-RES ovarian above 100 µM.

On to `Cc1ccc(NC(=O)CC(=O)n2nc(-c3ccccc3)c(N=Nc3ccccc3Cl)c2-c2ccccc2)cc1`, for which the TGI in the assay with HOP-18 NSCLC, in the assay with HL-60(TB) leukemia, in the assay on IGROV1 ovarian, in the assay with DMS 273 small cell lung, in the assay with LOX IMVI melanoma and with EKVX NSCLC was above 100 µM each time. Moreover, the TGI in the assay on KM20L2 colon, in the assay with XF 498 CNS, with UACC-257 melanoma and in the assay on LXFL 529 NSCLC was above 100 µM each time. Besides, the GI50 was 93.8 µM in the assay on HL-60(TB) leukemia, above 100 µM in the assay with IGROV1 ovarian, above 100 µM with KM20L2 colon and above 100 µM in the assay with UACC-257 melanoma.

In the case of `CCCCCCCCCCCCC(O)C1CCC(C(O)CCCCCCC(O)CCCCCCCC2=CC(C)OC2=O)O1` (centres undefined), the GI50 with HL-60(TB) leukemia was 0.852 µM; in the assay with BT-549 breast, 34.6 µM; in the assay on EKVX NSCLC, 23 µM; with UACC-257 melanoma, 12.1 µM; in the assay with NCI/ADR-RES ovarian, 31.5 µM. Also, the TGI in the assay with HL-60(TB) leukemia is 62.8 µM; in the assay with IGROV1 ovarian, above 100 µM; in the assay with BT-549 breast, above 100 µM; with LOX IMVI melanoma, 39.8 µM; with EKVX NSCLC, above 100 µM; in the assay with UACC-257 melanoma, 85.9 µM. Besides, the TGI with NCI/ADR-RES ovarian is above 100 µM.

As to `CC1=NN(C(=O)c2ccccc2O)C(=O)/C1=C/c1ccccc1O`, the TGI in the assay on HL-60(TB) leukemia is 3.62 µM; in the assay on IGROV1 ovarian, 3.63 µM; with BT-549 breast, 50 µM; in the assay with LOX IMVI melanoma it was 31.9 µM; with EKVX NSCLC, 41.6 µM; in the assay on KM20L2 colon it was above 100 µM. Further, the TGI in the assay on XF 498 CNS is above 100 µM; with UACC-257 melanoma, 30.5 µM; in the assay on NCI/ADR-RES ovarian, above 36.7 µM; with LXFL 529 NSCLC, above 100 µM.

Regarding `CCCN1CN(C(C(=O)N[C@@H]2C(=O)N3C(C(=O)O)=C(C)CSC23)c2ccc(O)cc2)CSC1=S` (some centres undefined), the TGI in the assay with HOP-18 NSCLC, in the assay with HL-60(TB) leukemia, with IGROV1 ovarian, with DMS 273 small cell lung, with LOX IMVI melanoma and in the assay with SNB-78 CNS was above 100 µM throughout. Moreover, the TGI in the assay with EKVX NSCLC, with KM20L2 colon, in the assay on XF 498 CNS, in the assay on UACC-257 melanoma and with LXFL 529 NSCLC was above 100 µM throughout.

Regarding `COc1cc(Nc2cnc3cc(F)c(F)cc3n2)cc(OC)c1`, the TGI with HL-60(TB) leukemia, in the assay on IGROV1 ovarian, in the assay on BT-549 breast, in the assay on LOX IMVI melanoma, with EKVX NSCLC and in the assay on UACC-257 melanoma was above 100 µM in each case. This molecule yielded a TGI in the assay on NCI/ADR-RES ovarian above 100 µM.
